Experimental data as given in ChEMBL document CHEMBL3217635, “Pharmacological properties of indolone-N-oxides controlled by a bioreductive transformation in red blood cells?” (Medchemcomm, 2011).

Assays:
[1] = Metabolic stability in human RBC assessed as retention time of corresponding dihydroanalogue at 7.8 mg/ml by LC-MS analysis; type: ADME, cell-based; conditions: erythrocyte
[2] = Metabolic stability in human RBC assessed as retention time at 7.8 mg/ml by LC-MS analysis; type: ADME, cell-based; conditions: erythrocyte
[3] = Cytotoxicity against human MCF7 cells; type: cell-based
[4] = Half life in CD-1 mouse liver microsomes by LC-FL analysis; type: ADME
Plasmodium falciparum = assay: Antiplasmodial activity against Plasmodium falciparum FcB1; type: functional, organism-based
[5] = Selectivity index, ratio of CC50 for human MCF7 cells to IC50 for Plasmodium falciparum FcB1; type: functional
[6] = Half life in mouse liver microsomes; type: ADME
[7] = Drug metabolism in human RBC assessed as 1-HH formation at 5 mM at 4 degC after 6 hrs by HPLC-FL analysis; type: ADME, cell-based; conditions: erythrocyte, 5000 µM
[8] = Drug metabolism in cytoplasm of human RBC assessed as 1-HH metabolite formation after 3 hrs; type: ADME; conditions: erythrocytes
[9] = Drug metabolism in human phenylhydrazine-treated RBC assessed as 1-HH formation after 3 hrs; type: ADME, cell-based; conditions: erythrocyte
[10] = Drug metabolism assessed as 1-HH metabolite formation after 3 hrs in presence of human haemoglobin; type: physicochemical
[11] = Drug metabolism assessed as 1-HH metabolite formation in presence of human haemoglobin; type: ADME
[12] = Drug metabolism in human beta-thalassemic RBC assessed as 1-HH formation after 3 hrs; type: ADME, cell-based; conditions: erythrocyte
[13] = Drug metabolism assessed as 1-HH metabolite formation in presence of ferrous ion; type: physicochemical
[14] = Metabolic stability in human RBC assessed as increase in extracellular dihydroanalogue metabolite level at 1 mg/ml; type: ADME, cell-based; conditions: erythrocyte, TDE = time-dependent effect
[15] = Drug metabolism in human heat-denaturated RBC; type: ADME, cell-based; conditions: erythrocyte
[16] = Drug metabolism assessed as 1-HH metabolite formation in presence of haematin; type: physicochemical
[17] = Drug metabolism assessed as 1-HH metabolite formation in presence of haemoglobin; type: physicochemical
[18] = Drug metabolism assessed as 1-HH metabolite formation in presence of haemin; type: physicochemical
[19] = Drug metabolism assessed as 1-HH metabolite formation after 3 hrs in presence of ghost fraction; type: physicochemical
[20] = Drug metabolism in CDNB-treated human RBC assessed as 1-HH formation after 4 hrs by HPLC-FL analysis; type: ADME, cell-based; conditions: erythrocyte
[21] = Drug metabolism in healthy human RBC assessed as 1-HH formation after 3 hrs; type: ADME, cell-based; conditions: erythrocyte
[22] = Drug metabolism in human RBC infected with late stage Plasmodium falciparum assessed as 1-HH formation after 3 hrs; type: ADME, cell-based; conditions: erythrocyte
[23] = Cellular uptake in human RBC assessed as intracellular level at 1 mg/ml measured immediately; type: ADME, cell-based; conditions: erythrocyte
[24] = Drug metabolism in human RBC assessed as 1-HH formation at 5 mM at 37 degC after 6 hrs by HPLC-FL analysis; type: ADME, cell-based; conditions: erythrocyte, 5000 µM
[25] = Drug metabolism in CD-1 mouse liver microsomes assessed as 1-HH metabolite formation after 10 mins by LC-FL analysis; type: ADME
[26] = Drug metabolism in human NEM-treated RBC assessed as 1-HH formation after 4 hrs by HPLC-FL analysis; type: ADME, cell-based; conditions: erythrocyte
[27] = Drug metabolism in human RBC assessed as 1-HH formation after 4 hrs by HPLC-FL analysis; type: ADME, cell-based; conditions: erythrocyte

SMILES: COc1ccc2cc(C3=[N+]([O-])c4ccccc4C3=O)ccc2c1
- Retention_time [1]: 9.9 min
- Retention_time [2]: 17.4 min

SMILES: O=C1c2cc3c(cc2NC1(O)c1ccc(Cl)cc1)OCO3 (stereo not drawn)
- CC50 [3]: 68 µM
- half-life [4]: 10 min
- IC50 (Plasmodium falciparum): 1.03 µM
- Ratio CC50/IC50 [5]: 66

SMILES: COc1ccc2c(c1)C(=O)C(c1ccc(Oc3ccccc3)cc1)=[N+]2[O-]
- Retention_time [1]: 11.3 min
- Retention_time [2]: 23.5 min

SMILES: O=C1C(c2ccc(Cl)c(Cl)c2)=[N+]([O-])c2ccccc21
- Retention_time [1]: 11.2 min
- Retention_time [2]: 20.9 min

SMILES: COc1ccc2c(c1)C(=O)C(c1ccc(N(C)C)cc1)=[N+]2[O-]
- Retention_time [1]: 8.2 min
- half-life [6]: 6 min
- IC50 (Plasmodium falciparum): 0.003 µM
- Retention_time [2]: 14 min

SMILES: COc1ccc2c(c1)C(=O)C(c1ccc(Cl)c(C)c1)=[N+]2[O-]
- Retention_time [1]: 10.4 min
- Retention_time [2]: 22.6 min

SMILES: O=C1C(c2ccc(Cl)cc2)=[N+]([O-])c2cc3c(cc21)OCO3
- CC50 [3]: 23 µM
- Drug metabolism [7]: Active
- half-life [4]: < 1 min
- Retention_time [1]: 9.6 min
- Drug metabolism [8]: Active
- Drug metabolism [9]: Active
- Stability [10]: Stable
- Stability [11]: Stable
- Drug metabolism [12]: Active
- Stability [13]: Stable
- Drug metabolism [14]: tde
- Stability [15]: Stable
- Stability [16]: Stable
- Stability [17]: Stable
- Stability [18]: Stable
- Ratio CC50/IC50 [5]: 264
- Stability [19]: Stable
- Drug metabolism [20]: Not Active
- Drug metabolism [21]: Active
- Drug metabolism [22]: Active
- Retention_time [2]: 18.2 min
- Drug uptake [23]: Active
- Drug metabolism [24]: Active
- Stability [25]: Stable
- Drug metabolism [26]: Not Active
- Drug metabolism [27]: Active

SMILES: CCN(CC)CCCC(C)Nc1ccnc2cc(Cl)ccc12 (stereo not drawn) [CHLOROQUINE]
- CC50 [3]: 19 µM
